Data as given in US9669003B2, “Use of flavone and flavanone derivatives in preparation of sedative and hypnotic drugs” (priority 2012, dated 2017).
Marks after values point to notes of the source that are not given here.

What was measured:
Assay type in all cases: in vivo
Kunming mice [1] = test: Influence on autonomic activity of normal mice (ZIL-2 mice autonomic activity meter, counts within 10 min); conditions: intragastric, x ± s, n = 10; for Times of activities in 1 h after drug administration/10 min: 1 h after administration; for Times of activities in 2 h after drug administration/10 min: 2 h after administration; for Times of activities in 24 h after drug administration/10 min: 24 h after administration
Excerpt: (§1) 1.1 Animals for experiments: Kunming mice, weighting 18.9˜22.2 g for females, and 20.2˜23.0 g for males, licensed under SCXK-(Ji) 2007-0003, and provided by The experimental animal centre, Jilin University.
(§2) 1.2 Chemicals for experiments: The flavone derivatives provided in Examples 1-41 and the flavanone derivatives provided in Examples 42-71 are all formulated with 0.5% sodium carboxymethyl cellulose as solutions with required concentrations.
(§3) 1.3 Grouping of animals: 6420 animals are employed in the entire experiments and 2140 of the animals are randomly divided into 214 groups by gender, and the […] include: control group, low dosage group for each experimental drugs (25 mg/kg), medium dosage group for each experimental drugs (50 mg/kg), and high dosage group for each experimental drugs (100 mg/kg). Each group has 10 animals and either female or male constitutes half of the group. The groups are used in behavior observation and voluntary action observation. The other 4280 animals are randomly divided into 214 groups by gender respectively (the grouping way is the same with that described above). Each group has 20 animals and either female or male constitutes half of the group. In each group, 10 animals are used in hypnosis experimentations with pentobarbital sodium doses below the threshold, and the other 10 animals are used hypnosis experimentations with pentobarbital sodium doses at the threshold.
1.4 Experimental instrument and agents: ZIL-2 mice autonomic activity meter, production of Institute of Materia Medica of Chinese Academy of Medical Sciences; pentobarbital sodium, Lot: 100808, 25 g/bottle, Beijing Chemical Reagent Company equipment imported from Germany.
1.5.2 Influence on Autonomic Activity of Normal Mice
After observing the general behavior, in 1 h, 2 h and 24 h after drug administration, respectively, ZIL-2 mice autonomic activity meter is put respectively. Number of autonomic activities of each group of mice is measured within 10 min. Results among groups are compared.
(§4) Number of autonomic activities is detected by leneve Test for homogeneity of variance. If the homogeneity of variance is good (P>0.05), statistical analysis is performed with ANOVA. If ANOVA have statistical significance (P≦0.05), Dunnett's test for multiple comparisons analysis is performed. Number of animals of sleeping mice is applied of ANOVA. Incidence rate of animal asleep is applied of χ2 test. Sleep latency and sleep duration are recorded in min, averaged by group, represented by standard deviation, and undergo statistical analysis using ANOVA.

Kunming mice [2] = test: Influence on hypnosis effect with pentobarbital sodium doses below the threshold (25 mg/kg i.p.); conditions: pentobarbital sodium 25 mg/kg i.p. 60 min later, sleep observed in 30 min, n = 10
Excerpt: as §1, §2, §3
1.5.3 Influence on Hypnosis Effect with Mice Pentobarbital Sodium Doses Below the Threshold
(§5) The drug is intragastric administered in mice for single time, 2 animals of each group are given drug per round with the dosing interval of 40 min (±5 min). According to the administration round, in 60 min (±5 min) of each round after the drug administration, the animals were intraperitoneally injected 0.3% sodium pentobarbital 25 mg/kg, respectively. Sleep condition of the animals were observed within 30 min (under sleep determination standard of loss of righting reflex more than 1 min). After animals undergo loss of righting reflex, number of the animals is recorded, to calculate sleep percentage.
as §4

Kunming mice [3] = test: Influence on hypnosis effect with pentobarbital sodium doses at the threshold (50 mg/kg i.p.); conditions: pentobarbital sodium 50 mg/kg i.p. 60 min later, x ± s, n = 10
Excerpt: as §1, §2, §3
1.5.4 Influence on Hypnosis Effect with Mice Pentobarbital Sodium Doses at the Threshold
as §5, with “50” for “25”, “Time to fall asleep (sleep latency) and sleep duration” for “Sleep condition”, “recorded” for “observed”, “under” for “30 min (under”, “min.” for “min). After animals undergo loss of righting reflex, number of the animals is recorded, to calculate sleep percentage.”
as §4

[4] = test drug 25 mg/kg intragastric single dose
[5] = test drug 50 mg/kg intragastric single dose
[6] = test drug 100 mg/kg intragastric single dose
[7] = 25 mg/kg intragastric single dose
[8] = 50 mg/kg intragastric single dose
[9] = 100 mg/kg intragastric single dose

Row | SMILES | Times of activities in 1 h after drug administration/10 min (Kunming mice [1]; 25 mg/kg) | Times of activities in 2 h after drug administration/10 min (Kunming mice [1]; 25 mg/kg) | Times of activities in 24 h after drug administration/10 min (Kunming mice [1]; 25 mg/kg) | Times of activities in 1 h after drug administration/10 min (Kunming mice [1]; 50 mg/kg) | Times of activities in 2 h after drug administration/10 min (Kunming mice [1]; 50 mg/kg) | Times of activities in 24 h after drug administration/10 min (Kunming mice [1]; 50 mg/kg) | Times of activities in 1 h after drug administration/10 min (Kunming mice [1]; 100 mg/kg) | Times of activities in 2 h after drug administration/10 min (Kunming mice [1]; 100 mg/kg) | Times of activities in 24 h after drug administration/10 min (Kunming mice [1]; 100 mg/kg) | Number of sleeping animals (Kunming mice [2]; [4]) | rate of sleeping (%) (Kunming mice [2]; [4]) | Number of sleeping animals (Kunming mice [2]; [5]) | rate of sleeping (%) (Kunming mice [2]; [5]) | Number of sleeping animals (Kunming mice [2]; [6]) | rate of sleeping (%) (Kunming mice [2]; [6]) | duration of sleep (Kunming mice [3]; [7]) [min] | time to sleep (Kunming mice [3]; [7]) [min] | duration of sleep (Kunming mice [3]; [8]) [min] | time to sleep (Kunming mice [3]; [8]) [min] | duration of sleep (Kunming mice [3]; [9]) [min] | also measured
1 | C=Cc1cc(C2CC(=O)c3cc(C(N)=O)c(C4CCSC4)c(Oc4ccccc4)c3O2)ccc1N (stereo not drawn) [Example 57] | 299.9 ± 58.2 /10 min | 288.1 ± 73.0 /10 min | 311.7 ± 81.2 /10 min | 245.4 ± 45.9 /10 min | 240.8 ± 63.24 /10 min | 315.9 ± 85.6 /10 min | 206.6 ± 44.2 /10 min | 199.6 ± 49.9 /10 min | 325.7 ± 82.6 /10 min | 4 | 40* % | 6 | 60** % | 7 | 70** % | 41.14 ± 23.51 | 4.61 ± 1.53 | 48.87 ± 19.80 | 4.13 ± 1.71 | 54.44 ± 21.81 | time to sleep (Kunming mice [3]; [9]): 3.43 ± 1.20 min
2 | COc1cc(OC)cc(C2CC(=O)c3c(OC)cc(OC)cc3O2)c1 (stereo not drawn) [Example 49] | 305.2 ± 78.7 /10 min | 299.8 ± 94.1 /10 min | 281.4 ± 94.3 /10 min | 267.9 ± 21.5 /10 min | 246.6 ± 13.9 /10 min | 274.2 ± 34.8 /10 min | 179.9 ± 35.9 /10 min | 170.5 ± 34.1 /10 min | 286.1 ± 12.7 /10 min | 4 | 40* % | 6 | 60** % | 7 | 70** % | 37.90 ± 13.18 | 4.59 ± 1.55 | 40.75 ± 23.05 | 3.69 ± 1.32 | 57.65 ± 17.87 | time to sleep (Kunming mice [3]; [9]): 3.38 ± 1.29 min
3 | CCCc1cc(O)cc2c1C(=O)CC(c1ccc(-c3ccccc3)c([N+](=O)[O-])c1)O2 (stereo not drawn) [Example 70] | 233.5 ± 58.2 /10 min | 227.8 ± 32.9 /10 min | 316.0 ± 66.9 /10 min | 159.9 ± 45.0 /10 min | 141.0 ± 46.3 /10 min | 320.9 ± 81.4 /10 min | 129.3 ± 41.3 /10 min | 117.8 ± 39.6 /10 min | 320.7 ± 60.9 /10 min | 6 | 60** % | 8 | 80*** % | 9 | 90*** % | 47.57 ± 18.97 | 3.60 ± 1.69 | 61.38 ± 27.39 | 3.21 ± 1.35 | 73.09 ± 25.56 | time to sleep (Kunming mice [3]; [9]): 2.28 ± 1.13 min
4 | C=Cc1cc(C(N)=O)cc2oc(-c3ccc(N)c(C4CCSC4)c3)cc(=O)c12 (stereo not drawn) [Example 38] | 312.9 ± 40.6 /10 min | 296.2 ± 34.6 /10 min | 268.9 ± 82.8 /10 min | 259.2 ± 54.6 /10 min | 257.1 ± 57.2 /10 min | 279.7 ± 76.5 /10 min | 182.7 ± 41.3 /10 min | 165.4 ± 56.2 /10 min | 324.7 ± 80.9 /10 min | 6 | 60** % | 8 | 80*** % | 9 | 90*** % | 29.67 ± 21.25 | 4.92 ± 2.48 | 36.68 ± 12.30 | 4.67 ± 1.55 | 52.95 ± 20.05 | time to sleep (Kunming mice [3]; [9]): 3.98 ± 1.27 min
5 | COc1ccc(-c2cc(=O)c3c(OC)c(OC)c(OC)c(OC)c3o2)cc1OC [Example 14, 5,6,7,8,3′,4′-hexamethoxyl-flavone] | 289.9 ± 42.3 /10 min | 281.1 ± 41.6 /10 min | 313.2 ± 74.4 /10 min | 178.6 ± 40.2 /10 min | 183.3 ± 51.3 /10 min | 324.7 ± 79.6 /10 min | 159.1 ± 48.1 /10 min | 133.9 ± 49.7 /10 min | 322.6 ± 61.2 /10 min | 4 | 40* % | 6 | 60** % | 7 | 70** % | 34.12 ± 28.26 | 4.78 ± 1.81 | 57.34 ± 19.33 | 4.25 ± 1.55 | 60.26 ± 32.36 | time to sleep (Kunming mice [3]; [9]): 3.93 ± 1.57 min
